In PubChem BioAssay AID2060508 (Molecular Pharmacology Branch, DTP, NCI, 2025):
pIC50: −log10 of the molar value.

System: 454973-116-R2-J3-PDC spheroids, viability, % test/control
Test: Anticancer human tumor 454973-116-R2-J3-PDC patient-derived pancreatic carcinoma cell line growth inhibition [GQUAD]
Settings: spheroids with HUVEC and MSC; for pIC50: curve of first compound; for viability, T/C: stronger effect = lower value; active = viability on the fitted dose curve at most 10% of control; inactive = the rest
From the text: DNA G-quadruplex Stabilizer Agents in Combinations in Complex Spheroids
A high-throughput screen of multi-cell type tumor spheroids was designed to identify active combinations of DNA G-quadruplex stabilizer agents and targeted small molecules. Complex spheroids include a stromal component modeled by human endothelial cells (HUVEC) and fibroblasts modeled by human mesenchymal stem cells (MSCs). The concentration ranges selected for each drug and investigational agent were based upon clinically achievable concentrations if the clinical Cmax of the agent was known.
Compounds. The drugs and investigational agents: pidnarulex (CX-5461; NSC782164), APTO-253 (NSC789042), BRACO-19 (NSC847499), peposertib (NSC802822), ceralasertib (NSC780249), elimusertib (NSC800525), camonsertib (NSC841442), AZD-1390 (NSC803789), olaparib (NSC753686), talazoparib (NSC767125), ART-558 (NSC835418), sotorasib (NSC818433), MRTX-1133 (NSC836407), SN-38 (NSC673596), topotecan (NSC609699), etoposide (NSC141540), doxorubicin (NSC123127), gemcitabine (NSC613327), 5-fluorouracil (NSC19893), paclitaxel (NSC125973), vemurafenib (NSC761431), panobinostat (NSC761190), R-306465 (JNJ-16241199; NSC773264), adavosertib (NSC754352), TP-3654 (NSC805149), carboplatin (NSC241240), KSQ-4279 (NSC840948), and staurosporine (NSC755774) were obtained from the National Cancer Institute (NCI) Developmental Therapeutics Program Chemical Repository (34). The FDA-approved anticancer drug set is available from the NCI Developmental Therapeutics Program. […] The stock solutions were prepared in dimethyl sulfoxide (DMSO, Sigma-Aldrich, St. Louis, MO, cat. D2650) at 800-fold the tested concentration and stored at -70 degrees C prior to their use. All drugs and investigational agents were tested over a range starting from a high concentration at or near the clinical Cmax and decreasing in half-log increments. If the clinical Cmax for an agent had not been determined, the highest concentration tested was 10 microM.
2.3 Cell Culture. All cells were maintained in an incubator at 37 degrees C and 5% CO2 with 95% humidity. The PDC lines were cultured according to standard operating procedures established by the NCI PDMR. All PDCs were thawed and cultured in Matrigel-coated flasks prepared with a working solution of 1X Ham's F-12 nutrient mix, without supplementation (Invitrogen, cat. 11765054), 100 U/mL penicillin-streptomycin (Invitrogen, cat. 15140122), and 2.5% Matrigel (Corning Inc., cat. 354248) for the first three passages. The 857933-349-R-J2-PDC line was cultured in 6C/Colon 1B media, which includes advanced DMEM/F-12 (Thermo Fisher Scientific, cat. 12634028), 10 mM HEPES (Thermo Fisher Scientific, cat. 15630080), 1X GlutaMAX supplement (Thermo Fisher Scientific, cat. 35050061), 0.1 mg/mL primocin (InvivoGen, cat. ant-pm-2), 10% defined fetal bovine serum, heat inactivated (HyClone Laboratories Inc., cat. SH30070.03HI), 50% L-WRN conditioned media (ATCC, cat. CRL-3276), 1.25 mM N-Acetyl-L-cysteine (Sigma-Aldrich, cat. A9165), 10 mM nicotinamide (Sigma-Aldrich, cat. N0636), 1X B-27 supplement (Thermo Fisher Scientific, cat. 17504044), 1X N-2 supplement (Thermo Fisher Scientific, cat. 17502048), 10 microM Y-27632 dihydrochloride (Tocris Bioscience, cat. 1254), and 50 ng/mL human EGF recombinant protein (Thermo Fisher Scientific, cat. PHG0311). The 485176-168-R4-J1-PDC line was cultured in Panc media, which includes all 6C/Colon 1B media components plus 100 ng/mL human FGF-10 (Thermo Fisher Scientific, cat. 100-26), 500 nM SB-431542 (Selleckchem, cat. S1067), and gastrin (Tocris, cat. 3006).
[…]

[1] = second compound 0.0316 µM, first compound 0.0316 µM
[2] = second compound 0.0316 µM, first compound 0.316 µM
[3] = second compound 0.1 µM, first compound 0.0316 µM
[4] = second compound 0.1 µM, first compound 0.316 µM
[5] = second compound 0.316 µM, first compound 0.0316 µM
[6] = second compound 0.316 µM, first compound 0.316 µM
[7] = second compound 1 µM, first compound 0.0316 µM
[8] = second compound 1 µM, first compound 0.316 µM
[9] = second compound 3.16 µM, first compound 0.0316 µM
[10] = second compound 3.16 µM, first compound 0.316 µM
[11] = second compound 10 µM, first compound 0.0316 µM
[12] = second compound 10 µM, first compound 0.316 µM
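Note: spheroids exposed to compounds for seven days.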

CC1COCCN1c1cc(-c2ccnn2C)c2ccnc(-c3ccn[nH]3)c2n1 (centres undefined) + CN(C)c1ccc(Nc2c3ccc(NC(=O)CCN4CCCC4)cc3nc3cc(NC(=O)CCN4CCCC4)ccc23)cc1
inactive: viability, T/C [1] 97.9% | viability, T/C (second compound 0.0316 µM, first compound 0.1 µM) 66.8% | viability, T/C [2] 35.2% | viability, T/C (second compound 0.0316 µM, first compound 1 µM) 23% | viability, T/C (second compound 0.0316 µM, first compound 3.16 µM) 24% | viability, T/C (second compound 0.0316 µM, first compound 10 µM) 29.4% | viability, T/C [3] 102% | viability, T/C (second compound 0.1 µM, first compound 0.1 µM) 72% | viability, T/C [4] 32.9% | viability, T/C (second compound 0.1 µM, first compound 1 µM) 22.9% | viability, T/C (second compound 0.1 µM, first compound 3.16 µM) 23.1% | viability, T/C (second compound 0.1 µM, first compound 10 µM) 26.1% | viability, T/C [5] 94.3% | viability, T/C (second compound 0.316 µM, first compound 0.1 µM) 74.1% | viability, T/C [6] 31% | viability, T/C (second compound 0.316 µM, first compound 1 µM) 21.3% | viability, T/C (second compound 0.316 µM, first compound 3.16 µM) 21.7% | viability, T/C (second compound 0.316 µM, first compound 10 µM) 29.4% | viability, T/C [7] 91.3% | viability, T/C (second compound 1 µM, first compound 0.1 µM) 63.1% | viability, T/C [8] 36.2% | viability, T/C (second compound 1 µM, first compound 1 µM) 20.8% | viability, T/C (second compound 1 µM, first compound 3.16 µM) 22.6% | viability, T/C (second compound 1 µM, first compound 10 µM) 27.5% | viability, T/C [9] 87% | viability, T/C (second compound 3.16 µM, first compound 0.1 µM) 55.5% | viability, T/C [10] 38% | viability, T/C (second compound 3.16 µM, first compound 1 µM) 21.3% | viability, T/C (second compound 3.16 µM, first compound 3.16 µM) 26.2% | viability, T/C (second compound 3.16 µM, first compound 10 µM) 27.1% | viability, T/C [11] 69.8% | viability, T/C (second compound 10 µM, first compound 0.1 µM) 45.5% | viability, T/C [12] 31.4% | viability, T/C (second compound 10 µM, first compound 1 µM) 27.6% | viability, T/C (second compound 10 µM, first compound 3.16 µM) 24.1% | viability, T/C (second compound 10 µM, first compound 10 µM) 27%
7.10: pIC50 (second compound 10 µM)
6.77: pIC50 (second compound 1 µM)
6.72: pIC50 (second compound 0.1 µM) | pIC50 (second compound 0.316 µM)
6.85: pIC50 (second compound 3.16 µM)
6.74: pIC50 (second compound 0.0316 µM)

CC[C@@]1(O)C(=O)OCc2c1cc1n(c2=O)Cc2cc3c(CN(C)C)c(O)ccc3nc2-1 + CN(C)c1ccc(Nc2c3ccc(NC(=O)CCN4CCCC4)cc3nc3cc(NC(=O)CCN4CCCC4)ccc23)cc1
7.49: pIC50 (second compound 1 µM)
7.54: pIC50 (second compound 10 µM)
inactive: viability, T/C (second compound 0.0316 µM, first compound 0.000999 µM) 97.5% | viability, T/C (second compound 0.0316 µM, first compound 0.00316 µM) 97.7% | viability, T/C (second compound 0.0316 µM, first compound 0.00999 µM) 99.5% | viability, T/C [1] 64% | viability, T/C (second compound 0.0316 µM, first compound 0.0999 µM) 18.2% | viability, T/C [2] 20.1% | viability, T/C (second compound 0.1 µM, first compound 0.000999 µM) 111% | viability, T/C (second compound 0.1 µM, first compound 0.00316 µM) 102% | viability, T/C (second compound 0.1 µM, first compound 0.00999 µM) 88.4% | viability, T/C [3] 60.6% | viability, T/C (second compound 0.1 µM, first compound 0.0999 µM) 18.2% | viability, T/C [4] 20.5% | viability, T/C (second compound 0.316 µM, first compound 0.000999 µM) 101% | viability, T/C (second compound 0.316 µM, first compound 0.00316 µM) 111% | viability, T/C (second compound 0.316 µM, first compound 0.00999 µM) 82.1% | viability, T/C [5] 51.3% | viability, T/C (second compound 0.316 µM, first compound 0.0999 µM) 23.4% | viability, T/C [6] 23% | viability, T/C (second compound 1 µM, first compound 0.000999 µM) 99.3% | viability, T/C (second compound 1 µM, first compound 0.00316 µM) 89.8% | viability, T/C (second compound 1 µM, first compound 0.00999 µM) 87.1% | viability, T/C [7] 51.7% | viability, T/C (second compound 1 µM, first compound 0.0999 µM) 20.3% | viability, T/C [8] 21.7% | viability, T/C (second compound 3.16 µM, first compound 0.000999 µM) 98.7% | viability, T/C (second compound 3.16 µM, first compound 0.00316 µM) 82.4% | viability, T/C (second compound 3.16 µM, first compound 0.00999 µM) 83% | viability, T/C [9] 47.7% | viability, T/C (second compound 3.16 µM, first compound 0.0999 µM) 27.6% | viability, T/C [10] 23.4% | viability, T/C (second compound 10 µM, first compound 0.000999 µM) 83.9% | viability, T/C (second compound 10 µM, first compound 0.00316 µM) 71.8% | viability, T/C (second compound 10 µM, first compound 0.00999 µM) 61.5% | viability, T/C [11] 53.6% | viability, T/C (second compound 10 µM, first compound 0.0999 µM) 31% | viability, T/C [12] 25.7%
7.40: pIC50 (second compound 0.1 µM)
7.34: pIC50 (second compound 0.0316 µM)
7.52: pIC50 (second compound 0.316 µM) | pIC50 (second compound 3.16 µM)
